# Reference: patent publication US6528510B1, “HIV protease inhibitors” (Warner-Lambert Company, priority 1998, dated 2003)
# Read-outs that look alike come from different tables or passages of the source.
# Key:
# [1] = system: HIV infected lymphocyte derived CEM cells; assay: Cellular infection assay in CEM cells, XTT cytopathic procedure (EC50); conditions: for TI (therapeutic index, TC50/EC50): CEM cells; for EC50: read-out: Antiviral Efficacy EC50
# Procedure: (§1) Compound concentrations were 0.32, 1, 3.2, 10, 32, and 100 uM.
# [2] = system: uninfected CEM cells; assay: Cellular toxicity in uninfected CEM cells, XTT (TC50)
# Procedure: as §1
# [3] = target: T1, Recombinant HIV-1 protease (Human immunodeficiency virus type 1 group M subtype B, UniProt P04585); assay: HIV protease assay (Ki determination, HPLC readout of substrate III cleavage); assay type: biochemical
# T1 construct: Recombinant HIV-1 protease (>96% purity); purchased Bachem Bioscience, Inc. (King of Prussia, Pa.)
# Procedure: Recombinant HIV-1 protease (>96% purity) and HIV protease substrate III (the undecapeptide H-His-Lys-Ala-Arg-Val-Leu-Nph-Glu-Ala-Nle-Ser-NH2, 97% purity) were purchased from Bachem Bioscience, Inc. (King of Prussia, Pa.).
# The methods employed follow the procedures of Tummino, et al., Archives of Biochemistry and Biophysics, 1995;316:523). […] (total volume, […]). […] The final inhibitor concentrations used were 0 (0.1, 0.2, in some experiments), 0.5, 1, 2, 5, 10, 20, 50, and 100 μM. The solution was mixed, incubated for 5 minutes and the reaction quenched by addition of trifluoracetic acid, 2% final. The (leu-p-nitro-phe) bond of the substrate is cleaved by the enzyme and substrate arid products separated by reverse-phase HPLC. Absorbance was measured at 220 nm, peak areas determined, and percentage conversion to product used to calculate percentage control (=[% conversion (+inhibitor)/% conversion (−inhibitor)]×100).
# [4] = Mouse blood levels after oral dosing; assay type: in vivo, Charles River CD-1 mice; conditions: CD-1, mouse, plasma, mice, oral dose of 25 mg/kg; for Cmax: read-out: Cmax (maximum concentration reached within the plasma); for half-life: read-out: T 1/2 (half life) (converted)
# Procedure: Charles River CD-1 mice were dosed with a 25 mg/kg drug solution orally by gavage. For oral dosing the compounds were dissolved in 0.1N NaOH (20% final volume) and then 0.5% methylcellulose (80% final volume) was added. Blood was drawn and pooled from 5 mice at each time point via heart puncture and was placed in a 15 mL centrifuge tube containing heparin. The plasma stored in 200 μL aliquots at −80° C. until assayed.
# Plasma was thawed at room temperature and then 400 μL of acetonitrile was added to each vial and vortexed. Following centrifugation the supernatant was removed and evaporated in a nitrogen evaporator at 48° C. Residue was then resolublized in 200 μL of a 75% water/25% CH3CN solution for HPLC analysis. HPLC analysis used a Zorbax RX-C8 column (4.6×150 mm) with a 25 mM potassium phosphate buffer with 0.1% TFA, pH 3.0. Mobile phases consisted of varying percentages of two buffer mixtures: Buffer A—90% buffer, 10% CH3CN, and Buffer B—30% buffer, 70% CH3CN.
# A standard curve ranging from 0.5 to 50 μg/mL was used for each drug tested. Ten times final concentration solutions of drug in water were prepared from stock solutions of 1 mg/mL drug in DMSO. The final 1:10 dilution was then done in mouse plasma obtained from mice described above.
# [5] = Rat blood levels after oral dosing; assay type: in vivo; conditions: male, plasma, rats, oral dose of 10 mg/kg; for Cmax: read-out: Cmax (maximum concentration reached within the plasma); for half-life: read-out: T 1/2 (half life) (converted)
# Procedure: (§2) The procedure for pharmacokinetics analysis in dogs and rats was similar. For dog studies, two dogs received a single oral 10 mg/kg dose of the HIV protease inhibitor as a solution. The protease inhibitor was dissolve in 0.1N NaOH followed by buffering or diluting with isotonic phosphate buffer or water depending on solubility. For rat studies. two male rats received a single oral 10 mg/kg gavage dose of the HIV protease inhibitor suspended in 0.5% methylcellulose. For the IV administration, the compounds were dissolved in 0.1N sodium hydroxide at a concentration of 10 mg/ml. The IV dose was given bolus. Blood samples were collected prior to dosing and at 0.25, 0.5, 1, 1.5, 2, 3, 4, 8, 12, and 24 hours postdose. Plasma samples were analyzed for the HIV protease inhibitor using a HPLC procedure. The method involved plasma protein precipitation with acetonitrile, reverse-phase chromatographic separation of the HIV protease inhibitor and internal standard, and quantitation by UV detection. Some plasma samples were concentrated by evaporation prior to injection. Pharmacokinetic parameters were determined by noncompartmental analysis of individual rat-plasma concentration-time curves using WinNonlin. Maximum concentration (Cmax) and time for these to occur (tmax) were recorded as observed. Area under concentration-time curve (AUC) values were obtained using the linear trapezoidal rule.
# [6] = Dog blood levels after oral dosing; assay type: in vivo; conditions: plasma, dogs, oral dose of 10 mg/kg; for half-life: read-out: T 1/2 (half life) (converted)
# Procedure: as §2
# [7] = Rat blood levels after IV dosing; assay type: in vivo; conditions: plasma, rats, IV dose of 10 mg/kg; for half-life: read-out: T 1/2 (half life) (converted)
# Procedure: as §2
# [8] = Cellular toxicity in uninfected CEM cells, XTT (TC50); conditions: human, uninfected CEM cells (lymphocyte derived)
# Procedure: as §1
# [9] = system: HIV infected lymphocyte derived CEM cells; conditions: as disclosed by Hagen et al., J. Med. Chem. 1997; cited from earlier work
# [10] = as disclosed by Vander Roest et al., ICAAC 1997, relative to related polar substituted derivatives; cited from earlier work
# [11] = read-out: Antiviral Efficacy TC50, uninfected CEM cells
# [12] = recombinant HIV-1 protease, read-out: Inhib of HIV Protease KI
# [13] = Human immunodeficiency virus 1, CCRF-CEM
Compound,"TI (therapeutic index, TC50/EC50) [1]",EC50 ([1]; HIV infected CEM cells) [nM],CC50 [2] [µM],"CC50 [2, 11] [µM]","Ki [3, 12] [nM]",Cmax [4] [µM],half-life [4] [min],"EC50 [1, 13] [nM]",Cmax [5] [µM],half-life [5] [min],Cmax [6] [µM],half-life [6] [min],C0 [7] [µM],half-life [7] [min],CC50 [8] [µM],antiviral activity [9],pharmacokinetics in mice [10],Ki [3] [nM]
"3-(2-Amino-5-isopropyl-benzothiazol-6-yl-sulfanyl)-6-[2-(4-fluoro-phenyl)-ethyl]-phenethyl-4-hydroxy-6-isopropyl-5,6-dihydro-pyran-2-one [Example 16]",10.4,11000,114,,,,,,,,,,,,,,,
"3-(4-Amino-2-tert-butyl-5-methyl-phenylsulfanyl)-6-(2-furan-3-yl-ethyl)-4-hydroxy-6-isopropyl-5,6-dihydro-pyran-2-one [Example 36]",77,2200,,170,1.7,,,,,,,,,,,,,
"Cc1cc(SC2=C(O)C[C@@](CCc3ccsc3)(C(C)C)OC2=O)c(C(C)(C)C)cc1CO [Example 12, (S)-3-(2-tert-Butyl-4-hydroxymethyl-5-methyl-phenylsulfanyl)-4-hydroxy-6-isopropyl-6-(2-thiophen-3-yl-ethyl)-5,6-dihydro-pyran-2-one]",650,,,,0.07,95,570,140,30,690,149,105,160,720,91,,,
Cc1cc(SC2=C(O)CC(CCc3cc[nH]n3)(C(C)C)OC2=O)c(C(C)(C)C)cc1N (stereo not shown) [Example 41],10,20000,,195,6.5,,,,,,,,,,,,,
"Cc1cc(SC2=C(O)CC(CCc3ccc(N)cc3)(C(C)C)OC2=O)c(C(C)(C)C)cc1CO (stereo not shown) [Reference Agent 1, reference compound]",>200,,,,,23,132,500,16,204,140,75,86,222,> 100,particularly good antiviral activity,comparatively good pharmacokinetics in mice,0.43
"Cc1cc(SC2=C(O)CC(CCc3ccc(O)cc3)(C(C)C)OC2=O)c(C(C)(C)C)cc1CO (stereo not shown) [Reference Agent 2, reference compound]",>166,,,,0.22,17,120,600,3.4,33,40,31.2,100,234,> 100,particularly good antiviral activity,comparatively good pharmacokinetics in mice,
"(S)-N-[6-tert-Butyl-5-(4-hydroxy-6-isopropyl-2-oxo-6-[2-(4-hydroxy-phenyl)ethyl]-5,6-dihydro-2H-pyran-3-ylsulfanyl)-indolin-1yl]-(4-cyanophenyl)sulfonamide [Example 70]",6,1300,,8,0.82,,,,,,,,,,,,,
